Laboratory results from patent US20210371353A1, “FERTILIZER COMPOSITIONS AND PLANTS CONTAINING PROTOCATECHUIC ACID, AND USES THEREOF” (priority 2020, published 2021).
“Also recorded” adds a separate entry of the source.

Columns and labels:
[1] = test system: lettuce; experiment: Size of roots and leaves of harvested lettuce; format: in vivo; conditions: for Leaves (each) Width: control 3-5 cm; for Root (as a whole) Width: control 6 cm; for Root (as a whole) Length: control 8 cm; for Leaves (each) Length: control 20-21 cm; for Size of roots and leaves / plant growth compared with control: approximately eight weeks (two months) after sowing
Description: A commercial plant box as shown in FIG. 1A was used for the experiment. The bottom one half was filled with sandbox sand, and the top layer was filled with six inches of non-fertilized soil. The level of the soil was four inches below the top of the container. The plant box was partitioned into three sections with physical barriers in between, from the top of the soil to the bottom of the plant box, as illustrated in FIG. 1B.
A single straight line of 0.25-inch-deep trough was formed in each section. Then, lettuce seeds were placed in the trough according to the methods laid out in Table 1 below. Each section was watered daily with tap water.
Approximately eight weeks after sowing, a portion of each group was harvested, and size of the roots and leaves of the harvested lettuce was measured, as summarized in Table 3 below.

[2] = test system: lettuce; experiment: Remaining lettuce observed until final harvest (wilting, size, pest holes); format: in vivo; conditions: approximately 14 weeks after sowing
[3] = test system: pink azaleas; experiment: Flowering and sprouting of pink azaleas; format: in vivo, pink azalea
Description: In the experimental plant, small amount of PCA crystals were placed around the stem, and both plants were watered daily.

[4] = test system: red azaleas; experiment: Flowering of red azaleas; format: in vivo, azalea (red bird variety); conditions: small amount of PCA crystals around the stem
Description: In one of the two azalea plants (red bird variety), small amount of PCA crystals were placed around the stem, and both were watered daily. The plant treated with PCA bloomed in three weeks, and the other plant bloomed in seven weeks.

[5] = test system: lettuce; experiment: Browning of harvested and cut lettuce; format: in vivo
Description: Browning of the lettuce harvested at approximately eight weeks after sowing were examined for experimental groups 2 and 3. The cut end of the stalk and the cut area on the leaves were observed. First browning appeared on the cut end six days after harvesting and cutting.

[6] = test system: rice; conditions: had been reported; cited from earlier work
[7] = approximately eight weeks after sowing

Compound | Shape of root and leaves compared with other groups [1, 7] | Leaves (each) Width [1, 7] | Root (as a whole) Width [1, 7] | Root (as a whole) Length [1, 7] | Leaves (each) Length [1, 7] | Size of leaves and roots at final harvest, group 3 versus group 2 [2] | Size of roots and leaves / plant growth compared with control [1] | Blooming compared with control plant ([3]; approximately five weeks after placing PCA crystals around the stem) | Flowering, buds and shoots compared with control plant ([3]; approximately seven weeks after placing PCA crystals, control wilted) | Buds compared with control plant ([3]; approximately six weeks after placing PCA crystals) | Overall flowering, sprouting and budding compared with control ([3]; summary) | Speed of flowering compared with untreated plant [4] | Time to bloom ([4]; watered daily, untreated plant seven weeks) | Time to first browning on the cut end after harvesting and cutting ([5]; lettuce harvested approximately eight weeks after sowing) | Browning in the cut areas of the leaves ([5]; six days after cutting) | Browning on cut end of the stalk compared with control ([5]; six days after harvesting and cutting) | Effect on growth of some plant species, e.g., rice [6]
O=C(O)c1ccc(O)c(O)c1 [PCA coating, protocatechuic acid] | the root was relatively narrower, and the leaves were relatively wider and shorter; also recorded: a different shaped single root | 4-7 cm | 3-5 cm | 8-11 cm | 17-18 cm |  |  |  |  |  |  |  |  |  |  |  | 
O=C(O)c1ccc(O)c(O)c1 [PCA crystals, protocatechuic acid] |  | 4-6 cm | 9 cm | 10 cm | 24 cm | larger and wider leaves and larger roots than experimental group 2 | bigger roots and leaves than the control | started to bloom before the control plant did, and had more flowers blooming than the control plant | continued to flower and had more buds and taller shoot of stems than the control | had many more buds on the top yet to flower | flowered sooner, added sprouts sooner, and had budding that lasted longer than the control | more than twice as fast | three | six | no browning was observed; also recorded: no browning was seen where leaves were cut | not as thick as in the control group; also recorded: did not show thick brown covering on the stump | 
O=C(O)c1ccc(O)c(O)c1 [PCA, protocatechuic acid] |  |  |  |  |  |  | enhanced plant growth; larger root system and larger leaves than the control |  |  |  |  |  |  |  |  |  | no effect on growth
